Measured values published in patent publication US6514981B1, “Methods of modulating tyrosine protein kinase function with indolinone compounds” (Sugen, Inc., priority 1998, dated 2003).

Experiments:
Insulin Receptor = target: T1, Insulin Receptor (Homo sapiens, UniProt P06213); test: Insulin receptor phosphorylation assay in H25 cells (ELISA); type: cell-based; details: insulin stimulation
T1 construct: expressed in transfected cells; host or cells: H25 cells (NIH3T3, ATCC No. 1658)
Description: The following materials and reagents were used to measure phophotyrosine levels on the insulin receptor (indicating insulin receptor tyrosine kinase activity):
1. The preferred cell line was an NIH3T3 cell line (ATCC No. 1658) which overexpresses Insulin Receptor (H25 cells);
2. Resuspend the cells in fresh DMEM+10% FBS+2mM L-Glutamine, and transfer to 96-well tissue culture plate (Corning, 25806-96) at 20,000 cells/well (100 μL/well). The cells are then incubated for 1 day. Following such incubation, 0.01% serum medium (90/μL) replaces the old media and the cells incubate in 5% CO2 and 37° C. overnight.
1. Coat the ELISA plate (Corning 25805-96) with Anti-IR Antibody at 0.5 μg/well in 100 μL PBS at least 2 hours.
C. Assay Procedures 1. The drugs are tested in serum-free condition. 2. Dilute drug stock (in 100% DMSO) 1:10 with DMEM in 96-well poly-propylene plate, and transfer 10 μL/well of this solution to the cells to achieve final drug dilution 1:100, and final DMSO concentration of 1.0%. Incubate the cells in 5% CO2 at 37° C. for 2 hours.
4. After drug incubation for two hours, transfer 10 μL/well of 1 μM insulin in PBS to the cells (Final concentration=100 nM), and incubate at 5% CO2 at 37° C. for 10 minutes.
5. […]
The IC50 values measured in the insulin receptor phosphorylation assay for the compound of formula VI are depicted in Table 7: […]

EGFR = EGFR (Homo sapiens, UniProt P00533); test: EGF receptor phosphorylation assay in cells (ELISA); type: cell-based; parameters: expressed in transfected cells; host or cells: NIH 3T3/C7 cell line; details: NIH 3T3/C7 cells, EGF stimulation
EGFR, sequence (P00533 25-1210): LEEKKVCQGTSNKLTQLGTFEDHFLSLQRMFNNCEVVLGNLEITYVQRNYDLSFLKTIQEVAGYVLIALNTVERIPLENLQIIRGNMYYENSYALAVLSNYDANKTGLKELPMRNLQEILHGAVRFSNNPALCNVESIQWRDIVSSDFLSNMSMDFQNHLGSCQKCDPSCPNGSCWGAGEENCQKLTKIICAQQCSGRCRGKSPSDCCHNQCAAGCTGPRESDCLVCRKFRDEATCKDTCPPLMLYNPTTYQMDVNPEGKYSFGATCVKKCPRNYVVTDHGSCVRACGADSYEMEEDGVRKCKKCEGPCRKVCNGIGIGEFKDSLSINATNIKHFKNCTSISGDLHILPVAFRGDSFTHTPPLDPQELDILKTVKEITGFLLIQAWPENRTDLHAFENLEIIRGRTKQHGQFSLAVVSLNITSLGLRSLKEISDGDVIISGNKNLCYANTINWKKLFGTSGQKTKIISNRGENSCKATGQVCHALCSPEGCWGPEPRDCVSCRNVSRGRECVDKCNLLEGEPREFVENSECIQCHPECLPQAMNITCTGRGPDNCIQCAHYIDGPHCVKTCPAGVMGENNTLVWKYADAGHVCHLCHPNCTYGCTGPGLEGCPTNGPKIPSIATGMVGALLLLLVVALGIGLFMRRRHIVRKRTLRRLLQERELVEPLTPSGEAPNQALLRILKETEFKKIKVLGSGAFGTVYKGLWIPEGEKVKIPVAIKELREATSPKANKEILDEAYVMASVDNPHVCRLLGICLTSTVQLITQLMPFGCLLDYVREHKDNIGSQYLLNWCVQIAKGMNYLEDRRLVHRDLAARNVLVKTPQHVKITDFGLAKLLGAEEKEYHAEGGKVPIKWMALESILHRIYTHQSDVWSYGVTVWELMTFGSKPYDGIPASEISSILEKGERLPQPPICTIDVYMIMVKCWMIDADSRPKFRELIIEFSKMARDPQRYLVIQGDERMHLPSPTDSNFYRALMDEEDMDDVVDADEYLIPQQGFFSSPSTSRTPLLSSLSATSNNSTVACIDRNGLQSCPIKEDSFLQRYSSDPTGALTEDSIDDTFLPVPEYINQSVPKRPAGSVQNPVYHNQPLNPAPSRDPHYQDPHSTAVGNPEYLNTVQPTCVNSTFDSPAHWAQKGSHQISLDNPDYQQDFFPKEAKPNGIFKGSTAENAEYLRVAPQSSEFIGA
Description: EGF Receptor kinase activity in cells genetically engineered to express human EGF-R was measured as described below: 1. Coat ELISA plates (Coming, 96 well, Cat. #25805-96) wit 05-101 antibody at 0.5 μg per well in PBS, 150 μL final volume/well, and store overnight at 4° C. Coated plates are good for up to 10 days when stored at 4° C. 1. NIH 3T3/C7 cell line (Honegger, et al., Cell 51:199-209, 1987) can be use for this assay. 3. Resuspend cells in seeding medium (DMEM, 0.5% bovine serum), and count the cells using trypan blue. Viability above 90% is acceptable. Seed cells in DMEM medium (0.5% bovine serum) at a density of 10,000 cells per well, 100 μL per well, in a 96 well microtiter plate. Incubate seeded cells in 5% CO2 at 37° C. for about 40 hours. 1. Check seeded cells for contamination using an inverted microscope. Dilute drug stock (10 mg/mL in DMSO) 1:10 in DMEM medium, then transfer 5 μL to a test well for a final drug dilution of 1:200 and a final DMSO concentration of […]. […] The maximal phosphotyrosine signal is determined by subtracting the value of the negative controls from the positive controls. The percent inhibition of phosphotyrosine content for extract-containing wells is then calculated, after subtraction of the negative controls. The IC50 values measured in the EGF receptor phosphorylation assay for the compound of formula VI are depicted in Table 3: […]

T1 sequence (P06213 28-1382, species assumed): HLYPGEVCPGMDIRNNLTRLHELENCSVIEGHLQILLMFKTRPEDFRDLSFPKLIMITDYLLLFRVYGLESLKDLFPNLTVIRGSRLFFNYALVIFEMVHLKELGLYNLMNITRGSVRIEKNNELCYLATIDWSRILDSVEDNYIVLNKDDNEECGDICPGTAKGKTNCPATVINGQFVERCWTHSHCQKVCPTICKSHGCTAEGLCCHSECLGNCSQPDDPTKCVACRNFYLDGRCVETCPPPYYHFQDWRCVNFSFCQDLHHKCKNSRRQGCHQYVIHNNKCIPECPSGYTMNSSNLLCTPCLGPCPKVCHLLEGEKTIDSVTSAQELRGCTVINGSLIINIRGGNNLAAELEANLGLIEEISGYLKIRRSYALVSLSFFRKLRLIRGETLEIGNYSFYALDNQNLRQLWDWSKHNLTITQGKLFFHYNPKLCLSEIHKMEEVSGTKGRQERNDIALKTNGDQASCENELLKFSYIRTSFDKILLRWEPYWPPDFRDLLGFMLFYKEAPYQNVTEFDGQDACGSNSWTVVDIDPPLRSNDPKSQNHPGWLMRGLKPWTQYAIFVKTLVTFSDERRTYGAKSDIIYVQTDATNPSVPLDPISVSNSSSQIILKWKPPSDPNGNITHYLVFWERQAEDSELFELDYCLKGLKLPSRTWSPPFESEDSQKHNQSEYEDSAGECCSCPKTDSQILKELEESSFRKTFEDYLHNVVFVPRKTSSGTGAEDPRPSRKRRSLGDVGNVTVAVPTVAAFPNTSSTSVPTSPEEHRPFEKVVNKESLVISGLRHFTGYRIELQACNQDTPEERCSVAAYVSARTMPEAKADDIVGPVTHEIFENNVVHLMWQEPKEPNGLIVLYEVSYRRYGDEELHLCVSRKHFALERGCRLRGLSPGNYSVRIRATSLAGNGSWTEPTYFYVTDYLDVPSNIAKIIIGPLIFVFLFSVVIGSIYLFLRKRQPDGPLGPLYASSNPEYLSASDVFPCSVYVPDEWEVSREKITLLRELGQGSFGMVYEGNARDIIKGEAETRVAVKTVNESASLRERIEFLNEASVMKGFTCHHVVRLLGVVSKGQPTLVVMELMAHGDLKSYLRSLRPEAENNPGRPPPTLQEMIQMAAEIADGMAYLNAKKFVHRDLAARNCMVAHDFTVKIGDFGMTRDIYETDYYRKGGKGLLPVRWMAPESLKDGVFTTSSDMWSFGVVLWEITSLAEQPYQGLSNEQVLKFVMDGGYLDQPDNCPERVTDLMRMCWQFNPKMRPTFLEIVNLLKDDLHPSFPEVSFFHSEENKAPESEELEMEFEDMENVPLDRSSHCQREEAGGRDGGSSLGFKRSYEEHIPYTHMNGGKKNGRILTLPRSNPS

IC50 (Insulin Receptor): 21.9 µM
IC50 (EGFR): > 100 µM
SMILES: Cc1cc(/C=C2/C(=O)Nc3ccccc32)c(C)c2c1[nH]c1ccccc12 [VI]
